Source: patent publication US4939168A, “Discodermolide compounds, compositions containing same and methods of preparation and use” (Harbor Branch Oceanographics Institution, Inc., priority 1989, dated 1990)
≈ marks a conversion by molar mass, not a printed value.

What was measured:
Assay type in all cases: cell-based
[1] = system: human peripheral blood lymphocytes (PBL); assay: human mixed lymphocyte reaction (MLR), 3H-thymidine incorporation; details: for CPM (counts per minute of incorporated 3H-thymidine): control 48064
Procedure: (§1) The pure compound discodermolide I, was tested for immunosuppressive effects on the MLR and LCV assays using murine splenocytes and in the human MLR and mitogen stimulation assays, using human peripheral blood lymphocytes (PBL). Cellular proliferation was determined using incorporation of ^3 H-thymidine.
^1 Counts per minute of incorporate ^3 Hthymidine

[2] = viability of cells in the human mixed lymphocyte reaction, M.T.T. metabolism
Procedure: as §1
^2 % Viable cells as measured by M.T.T. metabolism

murine splenocytes [3] = assay: murine lymphocyte viability assay (LCV), 3H-thymidine incorporation
Procedure: as §1

[4] = as above; details: mouse, splenocytes, read-out: % LCV Control (percent of the control LCV response)
Procedure: as §1

[5] = system: murine P388 leukemia cells; assay: P388 cytotoxicity (antiproliferative effect, MTT); details: Mus musculus, 48-h exposure
Procedure: The crude ethanolic extract of the sponge and the pure compound I were tested for toxicity against murine P388 leukemia cells. P388 cells obtained from Dr. J. Mayo, National Cancer Institute, Bethesda, MD, were maintained in Roswell Park Memorial Institute (RPMI) medium 1640 supplemented with 10% horse serum. All cell lines were cultured in plastic tissue culture flasks and kept in an incubator at 37° C. in humidified air containing 5% CO2. Antibiotic-free stock cultures of P388 cells were subcultured to 10^5 cells/ml by dilution in fresh growth medium at 2 to 3 day intervals. The mean generation time of primary cultures was 14 to 17 hr.
To assess the antiproliferative effects of agents against P388 cells, 200 μl cultures (96-well tissue culture plates, Nunc, Denmark) were established at 1×10^5 cells/ml in drug-free medium or medium containing the crude extract at a final dilution of 1:500 or discodermolide at various concentrations. Solvent for all dilutions was methanol, which was removed from plates under vacuum. All experimental cultures were initiated in medium containing Gentamycin sulfate (50 μg/ml; Schering Corporation, Kenilworth, NJ). After 48-h exposures, P388 cells were enumerated using 3-[4,5-Dimethylthiazol-2-yl]-2,5-diphenyltetrazolium bromide (MTT) as described below (M. C. Alley, et al., Cancer Res. 48:589, 1988).
To quantitate the effects on cell proliferation, 75 μl of warm growth medium containing 5 mg/ml MTT was added to each well and cultures were returned to the incubator for 90 minutes. To spectrophotometrically quantitate formation of reduced formazan, plates were centrifuged (900×g, 5 minutes), culture fluids removed by aspiration, and 200 μl of acidified isopropanol (2 ml concentrated HCl/liter isopropanol) added per well. The absorbance of the resulting solutions were measured at 570 nm with a plate reader (MR700 Microplate Reader, Dynatech, Laboratories, Chantilly, Va.). […] A linear relationship between P388 cell number and formazan production was found over the range of cell densities observed in these experiments.

murine splenocytes [6] = assay: murine two-way mixed lymphocyte reaction (MLR), 3H-thymidine incorporation
Procedure: as §1

[7] = system: human peripheral blood lymphocytes (PBL); assay: Con A mitogenesis of human lymphocytes (mitogen stimulation assay); details: for Con A (counts per minute of incorporated 3H-thymidine): Con A 10.0 μg/ml, control 262000
Procedure: as §1
^1 Counts per minute of incorporated ^3 Hthymidine. Conc. of Con

[8] = viability of human PBL in the Con A and PHA stimulation assays; details: peripheral blood lymphocytes, 50 and 25 μg/ml
Procedure: as §1

[9] = system: human peripheral blood lymphocytes (PBL); assay: PHA mitogenesis of human lymphocytes (mitogen stimulation assay); details: for PHA (counts per minute of incorporated 3H-thymidine): PHA 10.0 μg/ml, control 412200
Procedure: as §1
^2 Counts per minute of incorporated ^3 Hthymidine. Conc. of PHA

[10] = 50 and 25 μg/ml, mitogen 10 μg/ml

C=C/C=C\C(C)C(OC(N)=O)C(C)C(O)C(C)C/C(C)=C\C(C)C(O)C(C)/C=C\C(O)CC1OC(=O)C(C)C(O)C1C (single isomer, unassigned) [Discodermolide, discodermolide]
CPM (counts per minute of incorporated 3H-thymidine) ([1]; 0.4 μg/ml): 64211 CPM
CPM (counts per minute of incorporated 3H-thymidine) ([1]; 0.8 μg/ml): 49509 CPM
CPM (counts per minute of incorporated 3H-thymidine) ([1]; 1.6 μg/ml): 26336 CPM
CPM (counts per minute of incorporated 3H-thymidine) ([1]; 3.1 μg/ml): 8532 CPM
CPM (counts per minute of incorporated 3H-thymidine) ([1]; 6.3 μg/ml): 4996 CPM
CPM (counts per minute of incorporated 3H-thymidine) ([1]; 12.5 μg/ml): 2091 CPM
CPM (counts per minute of incorporated 3H-thymidine) ([1]; 25 μg/ml): 1728 CPM
CPM (counts per minute of incorporated 3H-thymidine) ([1]; 50 μg/ml): 1932 CPM
immunosuppressive activity in the human MLR (in words) ([1]; 50, 25, 12.5, 6.3, 3.1 and 1.6 μg/ml): immunosuppressive
viability ([2]; peripheral blood lymphocytes, 0.4 μg/ml, read-out: % Viability (% viable cells as measured by M.T.T. metabolism)): 115%
viability ([2]; peripheral blood lymphocytes, 1.6 μg/ml, read-out: % Viability (% viable cells as measured by M.T.T. metabolism)): 110%
viability ([2]; peripheral blood lymphocytes, 3.1 μg/ml, read-out: % Viability (% viable cells as measured by M.T.T. metabolism)): 94%
viability ([2]; peripheral blood lymphocytes, 6.3 μg/ml, read-out: % Viability (% viable cells as measured by M.T.T. metabolism)): 94%
viability ([2]; peripheral blood lymphocytes, 12.5 μg/ml, read-out: % Viability (% viable cells as measured by M.T.T. metabolism)): 94%
viability ([2]; peripheral blood lymphocytes, 25 μg/ml, read-out: % Viability (% viable cells as measured by M.T.T. metabolism)): 102%
viability ([2]; peripheral blood lymphocytes, 50 μg/ml, read-out: % Viability (% viable cells as measured by M.T.T. metabolism)): 204%
viability ([2]; peripheral blood lymphocytes, 50, 25, 12.5, 6.3, 3.1 and 1.6 μg/ml, read-out: viability in the human MLR): > 94%
toxicity in the murine assay (in words) (murine splenocytes [3]; 0.5 μg/ml): no associated toxicity
toxicity in the murine assay (in words) (murine splenocytes [3]; 500, 50 and 5 μg/ml): with associated toxicity
viability ([4]; 0.5 μg/ml): 151%
viability ([4]; 5 μg/ml): 68%
viability ([4]; 50 μg/ml): 26%
viability ([4]; 500 μg/ml): < 1%
inhibition at 0.125 µg/mL ([5]; 0.125 μg/ml): 2%
inhibition at 0.25 µg/mL ([5]; 0.25 μg/ml): 12%
inhibition at 0.5 µg/mL ([5]; 0.5 μg/ml): 49%
inhibition at 1 µg/mL ([5]; 1.0 μg/ml): 75%
inhibition at 2.5 µg/mL ([5]; 2.5 μg/ml): 87%
inhibition at 5 µg/mL ([5]; 5 μg/ml): 88%
inhibition at 10 µg/mL ([5]; 10 μg/ml): 90%
inhibition at 20 µg/mL ([5]; 20 μg/ml): 92%
IC50 ([5]; read-out: IC50 (concentration resulting in 50% inhibition of proliferation)): 0.5 µg/mL (≈ 0.842 µM)
immunosuppressive activity in the murine MLR (in words) (murine splenocytes [6]; 0.5 μg/ml): immunosuppressive
immunosuppressive activity in the murine MLR (in words) (murine splenocytes [6]; 500, 50 and 5 μg/ml): exhibited immunosuppressive activity
activity at 0.5 µg/mL (murine splenocytes [6]; Mus musculus, Splenocyte, 0.5 μg/ml, read-out: % MLR Control (percent of the control MLR response)): 18%
activity at 5 µg/mL (murine splenocytes [6]; Mus musculus, Splenocyte, 5 μg/ml, read-out: % MLR Control (percent of the control MLR response)): 25%
activity at 50 µg/mL (murine splenocytes [6]; Mus musculus, Splenocyte, 50 μg/ml, read-out: % MLR Control (percent of the control MLR response)): < 1%
activity at 500 µg/mL (murine splenocytes [6]; Mus musculus, Splenocyte, 500 μg/ml, read-out: % MLR Control (percent of the control MLR response)): < 1%
Con A (counts per minute of incorporated 3H-thymidine) ([7]; 6.3 μg/ml): 299518 Counts per minute
Con A (counts per minute of incorporated 3H-thymidine) ([7]; 12.5 μg/ml): 213740 Counts per minute
Con A (counts per minute of incorporated 3H-thymidine) ([7]; 25 μg/ml): 11567 Counts per minute
Con A (counts per minute of incorporated 3H-thymidine) ([7]; 50 μg/ml): 10230 Counts per minute
suppression of Con A stimulation of human PBL (in words) [7, 10]: suppressed
viability [8]: > 91%
PHA (counts per minute of incorporated 3H-thymidine) ([9]; 6.3 μg/ml): 441580 Counts per minute
PHA (counts per minute of incorporated 3H-thymidine) ([9]; 12.5 μg/ml): 391633 Counts per minute
PHA (counts per minute of incorporated 3H-thymidine) ([9]; 25 μg/ml): 14425 Counts per minute
PHA (counts per minute of incorporated 3H-thymidine) ([9]; 50 μg/ml): 16984 Counts per minute
suppression of PHA stimulation of human PBL (in words) [9, 10]: suppressed
